Data as given in patent US20100004485A1, “GABAPENTIN ENACARBIL SALTS AND PROCESSES FOR THEIR PREPARATION” (priority 2008, published 2010).

Legend:
[1] = Solubility test in distilled water; assay type: physicochemical; conditions: for Solubility in water (class in words) / Solubility (g/ml water): distilled water; for Solubility (g/ml water): 100 mg sample
Method: Solubility was determined by placing 100 mg of sample material in a 50 ml glass beaker, adding 10 μL portions of distilled water and agitating until dissolved.

[2] = Thermogravimetric analysis (TGA): temperature at which thermal decomposition starts; assay type: physicochemical; conditions: 25-200 C, 10° C./min, nitrogen
[3] = Hygroscopicity / water content at room conditions (TGA, FIG. 6); assay type: physicochemical; conditions: for Hygroscopicity: room conditions, GBPE-Ca compared to GBPE sodium salt
Method: Thermogravimetric Analysis (“TGA”) • TGA data obtained from TGA/DSC 1 of Mettler-Toledo or TA Instruments TGA 2959 • Heating range: 25-200 C; heating rate: 10° C./min, • Nitrogen flow 40 ml/min • Mass weight about 10 mg.

[4] = long period of storing

CC(OC(=O)NCC1(CC(=O)O)CCCCC1)OC(=O)C(C)C (stereo not drawn) [GBPE amorphous, 1-{[(α-isobutanoyloxyethoxy)carbonyl]-aminomethyl}-1-cyclohexane acetic acid, reference compound]
Solubility in water (class in words) [1]: insoluble

CC(OC(=O)NCC1(CC(=O)[O-])CCCCC1)OC(=O)C(C)C.CC(OC(=O)NCC1(CC(=O)[O-])CCCCC1)OC(=O)C(C)C.[Ba+2] (stereo not shown) [GBPE-Ba salt]
Solubility in water (class in words) [1]: freely soluble (a compound having a solubility of about 0.1 to about 1 g/ml)
Solubility (g/ml water) [1]: 0.125 g/mL
Temperature at which decomposition starts [2]: 60 °C
Water content when kept in room conditions ([3]; FIG. 6): contained no water
Hygroscopicity [3]: non-hygroscopic
Stability of form during storage [4]: stability over a long period of time

CC(OC(=O)NCC1(CC(=O)[O-])CCCCC1)OC(=O)C(C)C.CC(OC(=O)NCC1(CC(=O)[O-])CCCCC1)OC(=O)C(C)C.[Mg+2] (stereo not shown) [GBPE-Mg salt]
Solubility in water (class in words) [1]: sparingly soluble (a compound having a solubility of about 0.01 g/ml to about 0.03 g/ml)
Solubility (g/ml water) [1]: 0.020 g/mL
Temperature at which decomposition starts [2]: 70 °C

CC(OC(=O)NCC1(CC(=O)[O-])CCCCC1)OC(=O)C(C)C.CC(OC(=O)NCC1(CC(=O)[O-])CCCCC1)OC(=O)C(C)C.[Ca+2] (stereo not shown) [GBPE-Ca salt]
Solubility compared to GBPE sodium salt [1]: less soluble
Solubility in water (class in words) [1]: sparingly soluble (a compound having a solubility of about 0.01 g/ml to about 0.03 g/ml)
Solubility (g/ml water) [1]: 0.016 g/mL
Temperature at which decomposition starts [2]: 70 °C
Hygroscopicity [3]: less hygroscopic

CC(OC(=O)NCC1(CC(=O)[O-])CCCCC1)OC(=O)C(C)C.[Na+] (stereo not shown) [GBPE sodium salt, reference compound]
Hygroscopicity [3]: extremely hydrophilic
